Data: patent US10618869B2, “Oligo-benzamide compounds and their use” (The Board of Regents of the University of Texas System, priority 2010, dated 2020)
Entries after “also recorded” stand apart in the source; their conditions may differ.

Assays:
[1] = Storage stability of D2 in DMSO; format: physicochemical; details: room temperature and −70° C., storage 60 days
[2] = Stability of D2 in culture and in LNCaP cell lysate (HPLC); format: in vitro ADME
Description: FIGS. 4A-F. (FIG. 4A) Chemical structure of the bis-benzamide (D2). (FIG. 4B) the lowest-energy conformation of D2. (FIG. 4C) the stereoview of the superimposition of D2 on a helical turn.

[3] = biological target: T1, interaction between AR and hsp90 (Homo sapiens, UniProt P10275); experiment: AR-hsp90 interaction (co-immunoprecipitation); format: cell-based; details: hsp90 lacks a LXXLL motif
T1 construct: endogenous in cells; host or cells: prostate cancer cells
T1 sequence (P10275 1-920): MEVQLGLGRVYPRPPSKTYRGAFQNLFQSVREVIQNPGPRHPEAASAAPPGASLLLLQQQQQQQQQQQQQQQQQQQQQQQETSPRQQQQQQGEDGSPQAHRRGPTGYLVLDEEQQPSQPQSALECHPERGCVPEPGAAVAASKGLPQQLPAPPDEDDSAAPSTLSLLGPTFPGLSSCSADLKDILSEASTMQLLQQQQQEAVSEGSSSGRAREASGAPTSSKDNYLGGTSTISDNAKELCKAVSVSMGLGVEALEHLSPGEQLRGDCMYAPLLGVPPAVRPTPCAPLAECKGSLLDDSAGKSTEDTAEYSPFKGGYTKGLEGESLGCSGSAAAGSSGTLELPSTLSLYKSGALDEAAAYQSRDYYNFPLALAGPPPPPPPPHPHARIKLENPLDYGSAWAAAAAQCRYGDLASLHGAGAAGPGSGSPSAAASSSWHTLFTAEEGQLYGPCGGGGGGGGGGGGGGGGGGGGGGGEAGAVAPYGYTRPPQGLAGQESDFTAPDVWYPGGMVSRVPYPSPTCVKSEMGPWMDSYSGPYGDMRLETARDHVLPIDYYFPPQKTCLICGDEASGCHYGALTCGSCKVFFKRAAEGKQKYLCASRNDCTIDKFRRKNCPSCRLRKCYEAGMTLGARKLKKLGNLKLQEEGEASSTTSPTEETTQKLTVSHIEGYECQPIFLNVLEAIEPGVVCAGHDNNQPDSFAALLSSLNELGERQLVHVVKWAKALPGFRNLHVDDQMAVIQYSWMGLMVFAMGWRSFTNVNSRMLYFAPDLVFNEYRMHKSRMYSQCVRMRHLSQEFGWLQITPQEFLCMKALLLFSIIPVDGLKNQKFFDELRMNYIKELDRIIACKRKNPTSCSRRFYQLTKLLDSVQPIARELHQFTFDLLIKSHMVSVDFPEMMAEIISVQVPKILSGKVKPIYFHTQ

PSA-luciferase promoter = experiment: DHT-induced transcription from PSA-luciferase promoter; format: cell-based; details: LAPC4 cells
Description: FIG. 9. […] This effect of D2 could be rescued by overexpression of AR (bottom left panel) or PELP1 (bottom right panel).
(§1) At the protein level, D2, but not D1, was able to block DHT-induced expression of PSA protein. Again, the suppresion of DHT-induced transcription from an ARE could be overcome by overexpression of either AR or PELP1 ([…]). Overexpression of PELP1 was able to rescue the D2-mediated suppression of DHT-induced transcription nearly back to baseline.

PSA protein = experiment: DHT-induced PSA protein expression (western blot); format: cell-based; details: protein level
Description: FIG. 8 confirms these findings by QPCR experiment evaluating the effect of D1 and D2 on DHT-induced TMPRSS and PSA gene expression at the RNA level in LNCaP cells (bottom left panel) and by western blot analyses as evaluated by the effect of D1 and D2 on the expression of PSA, androgen receptor and actin in LAPC4 cells at the protein level. […] Confirmation of these findings were obtained by QPCR and western blot analyses.
as §1

[4] = system: PCa cell lines that contain AR; experiment: DHT-induced proliferation of prostate cancer cells (MTT assay); format: cell-based
Procedure: FIGS. 10A-E. D2 blocks proliferation of prostate cancer cells in vitro and in vivo (a) Effect of pretreatment with 100 nM of D1 and D2 on DHT-induced proliferation in multiple prostate cancer cell lines in MTT assay. Numbers are normalized to a baseline of 100, which represents the untreated rate of proliferation. (b) Effect of pretreatment with 100 nM of D1 and D2 on DHT-induced proliferation in LNCaPcells on a Cyquant assay. (c) Dose dependent curve of D2 on proliferation of LAPC4 cells. (d) Rescue of DHT induced proliferation by overexpression of PELP1 following suppression of DHT induced proliferation with 100 nM of D2. (e). Effect of direct intratumoral injections of D1 and D2 on the proliferation of prostate cancer xenografts in animal models: Following establishment of subcutaneous xenografts in animal models, daily direct intratumoral injections of D1 and D2 were performed. Bioluminesence imaging was used to track the growth of the tumors and the effect of D1 and D2 quantitated as shown in the graph.
The importance of PELP1 and AR interaction on DHT-mediated proliferation of prostate cancer cells were confirmed using rescue experiments, where D2 suppression of DHT-mediated proliferation was overcome by overexpression of PELP1 in LNCaP PCa cells.
(§2) In this experiment, cells were plated (2-10×10^3/well) in 96 well plates and subjected to androgen deprivation for 48 hours with phenol-red free RPMI and 1% charcoal stripped fetal bovine serum (CSF). Cells were then treated with either ethanol, EGF or DHT as a positive control for 48 hours. Peptidomimetics were added 2 hours prior to treatment. Cell proliferation was measured using the MTT colorimetric assay.
as §2, with “Cells” for “In this experiment, cells”, “96-well” for “96 well”, “ethanol” for “ethanol, EGF”, “hours” for “hours.”

AR nuclear translocation = experiment: DHT-induced nuclear translocation of AR in LNCaP cells; format: cell-based
Procedure: FIGS. 13A-B. Effect on DHT-induced nuclear translocation of exogenous AR-GFP in LNCaP cells transiently transfected with AR. (a) Blue stain is DAPI (for nucleus) and green is AR (GFP). Baseline untreated LNCaP cells are shown in top left panel. Cells were pretreated with DMSO (left panel), 100 nM D1 (middle panel) and 100 nM D2 (right panel) and then treated with 1 nM DHT. AR nuclear translocation was visualized at 4 hours following DHT treatment. (b) Nuclear and cytoplasmic extracts were collected from similar cells and subject to western analyses.
FIG. 13 shos that pretreatment with D2 blocked DHT-induced translocation of AR-GFP to the nucleus in LnCaP cells compared to the control D1 or DMSO.

## COC(=O)c1ccc(NC(=O)c2ccc([N+](=O)[O-])c(OCC(C)C)c2)c(OCC(C)C)c1 [D2]
[1]
  stability in DMSO: stable in DMSO
[2]; LNCaP cell lysate, 37° C., 7 days
  stability in cell lysate: stable in cell lysate of LNCaP over 7 days
[2]; in culture, FIG. 4E
  stability in culture (HPLC): single peak on the HPLC
[3]
  interaction between AR and hsp90: not able to affect
PSA-luciferase promoter
  DHT-induced transcription from PSA-luciferase promoter: able to block; also recorded: block DHT-Induced gene expression
PSA protein
  DHT-induced expression of PSA protein: able to block
[4]; DHT-induced proliferation, MTT assay, structure-function series
  activity on the proliferation of prostate cancer cells (FIGS. 17, 19A-N): good activity
[4]; LNCaP, LAPC4, C4-2, RWPE-1, CWR22v1, VCaP, MDAPCa 2b, pretreatment (100 nM in FIG. 10)
  DHT-induced proliferation of PCa cells: prevented; also recorded: does block
[4]; MTT assays, in vitro, read-out: IC50, DHT-mediated proliferation of PCa cells
  IC50: ~40 nM
AR nuclear translocation; 100 nM pretreatment, 1 nM DHT, 4 hours
  DHT-induced translocation of AR-GFP to the nucleus (imaging): blocked
AR nuclear translocation; upon addition of DHT
  AR nuclear translocation (nuclear and cytoplasmic extracts): prevents AR nuclear translocation
